Columns and labels:
HCT116-MTAP-KO = experiment: Cell killing in HCT116 isogenic pair (Cell Titer-Glo viability), MTAP knock-out cells; format: cell-based, human; conditions: 6 days incubation, 0-10 μM, * = more than 50% viability inhibition at tested concentration without a full curve
How it was run: (§1)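 Viability was read by CellTiter-Glo luminescence after 6 days of compound treatment (0–10 μM final, 37° C, 5% CO2), and IC50 values were fitted. The isogenic HCT116 pair, MTAP-KO clone versus mock-KO MTAP-wildtype, was grown in RPMI 1640 plus 10% FBS and seeded the day before.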

HCT116-mock-RNA-KO = experiment: Cell killing in HCT116 isogenic pair (Cell Titer-Glo viability), mock knock-out cells with MTAP wildtype genotype; format: cell-based, human; conditions: 6 days incubation, 0-10 μM
How it was run: as §1

Row | SMILES | IC50 (HCT116-MTAP-KO; Homo sapiens, HCT-116, 144 h) [nM] | IC50 (HCT116-mock-RNA-KO; Homo sapiens, HCT-116, 144 h) [nM] | IC50 (HCT116-MTAP-KO) [nM] | IC50 (HCT116-mock-RNA-KO) [nM]
1 | C[C@H](c1c(F)cc(Br)cc1F)N(C)C(=O)c1cc2nc(N)c3c(c2[nH]1)COC3 [Example 123, (R)-5-amino-N-(1-(4-bromo-2,6-difluorophenyl)ethyl)-N-methyl-6,8-dihydro-1H-furo[3,4-d]pyrrolo[3,2-b]pyridine-2-carboxamide] | 46 | 4910 |  | 
2 | Cc1cc([C@H](C)N(C)C(=O)c2cc3nc(N)c4c(c3[nH]2)COC4)c(F)cc1C1CC1 [Example 152, (S)-5-amino-N-(1-(4-cyclopropyl-2-fluoro-5-methylphenyl)ethyl)-N-methyl-6,8-dihydro-1H-furo[3,4-d]pyrrolo[3,2-b]pyridine-2-carboxamide] | 1280 | > 10000 |  | 
3 | C[C@@H](c1cnccn1)N(Cc1ncc(Br)cc1F)C(=O)c1cc2nc(N)c3c(c2[nH]1)COC3 [Example 61, (S)-5-amino-N-((5-bromo-3-fluoropyridin-2-yl)methyl)-N-(1-(pyrazin-2-yl)ethyl)-6,8-dihydro-1H-furo[3,4-d]pyrrolo[3,2-b]pyridine-2-carboxamide] | 808 | > 10000 |  | 
4 | CN(C(=O)c1cc2nc(N)c3c(c2[nH]1)COC3)[C@@H]1COCc2cc(Br)ccc21 [Example 63, (S)-5-amino-N-(7-bromoisochroman-4-yl)-N-methyl-6,8-dihydro-1H-furo[3,4-d]pyrrolo[3,2-b]pyridine-2-carboxamide] | 22 | 2500 |  | 
5 | CCN(C(=O)c1cc2nc(N)c3c(c2[nH]1)CO[C@@H]3C)[C@H](C)c1ccc(C(F)(F)F)cc1F [Example 126, (R)-5-amino-N-ethyl-N—((R)-1-(2-fluoro-4-(trifluoromethyl)phenyl)ethyl)-6-methyl-6,8-dihydro-1H-furo[3,4-d]pyrrolo[3,2-b]pyridine-2-carboxamide] | 11 | 1720 |  | 
6 | CN(C(=O)c1cc2nc(N)c3c(c2[nH]1)COC3)[C@@H]1COCc2cc(C3CC3)cc(F)c21 [Example 95, (S)-5-amino-N-(7-cyclopropyl-5-fluoroisochroman-4-yl)-N-methyl-6,8-dihydro-1H-furo[3,4-d]pyrrolo[3,2-b]pyridine-2-carboxamide] | 18 | 1780 |  | 
7 | C[C@@H](c1ncc(C2CC2)cc1F)N(C)C(=O)c1cc2nc(N)c3c(c2[nH]1)COC3 [Example 118, (S)-5-amino-N-(1-(5-cyclopropyl-3-fluoropyridin-2-yl)ethyl)-N-methyl-6,8-dihydro-1H-furo[3,4-d]pyrrolo[3,2-b]pyridine-2-carboxamide] | 2250 | > 10000 |  | 
8 | Nc1nc2cc(C(=O)N(Cc3ccc(-c4c(F)cncc4F)cn3)[C@@H]3CCCc4cccnc43)[nH]c2c2c1COC2 [Example 1, (R)-5-amino-N-((3′,5′-difluoro-[3,4′-bipyridin]-6-yl)methyl)-N-(5,6,7,8-tetrahydroquinolin-8-yl)-6,8-dihydro-1H-furo[3,4-d]pyrrolo[3,2-b]pyridine-2-carboxamide] | < 1.5 | 4.6 |  | 
9 | Nc1nc2cc(C(=O)N(Cc3ncccn3)Cc3ncc(C(F)(F)F)cc3F)[nH]c2c2c1COC2 [Example 42, 5-amino-N-((3-fluoro-5-(trifluoromethyl)pyridin-2-yl)methyl)-N-(pyrimidin-2-ylmethyl)-6,8-dihydro-1H-furo[3,4-d]pyrrolo[3,2-b]pyridine-2-carboxamide] | 24 | 2500 |  | 
10 | C[C@@H]1OC[C@H](N(C)C(=O)c2cc3nc(N)c4c(c3[nH]2)COC4)c2ccc(Br)cc21 [Example 78, 5-amino-N-((1S,4R)-7-bromo-1-methylisochroman-4-yl)-N-methyl-6,8-dihydro-1H-furo[3,4-d]pyrrolo[3,2-b]pyridine-2-carboxamide] | 624 | 2930 |  | 
11 | Nc1nc2cc(C(=O)N(Cc3ccc(-c4ccncc4)cn3)Cc3c(F)cccc3F)[nH]c2c2c1COC2 [Example 29, N-([3,4′-bipyridin]-6-ylmethyl)-5-amino-N-(2,6-difluorobenzyl)-6,8-dihydro-1H-furo[3,4-d]pyrrolo[3,2-b]pyridine-2-carboxamide] | 1.3 | 81 |  | 
12 | CN(C(=O)c1cc2nc(N)c3c(c2[nH]1)COC3)[C@@H]1COCc2cc(-c3cccnc3)ccc21 [Example 104, (S)-5-amino-N-methyl-N-(7-(pyridin-3-yl)isochroman-4-yl)-6,8-dihydro-1H-furo[3,4-d]pyrrolo[3,2-b]pyridine-2-carboxamide] | 18 | 2730 |  | 
13 | CCN(C(=O)c1cc2nc(N)c3c(c2[nH]1)COC3)[C@@H]1COCc2cc(Cl)ccc21 [Example 73, (S)-5-amino-N-(7-chloroisochroman-4-yl)-N-ethyl-6,8-dihydro-1H-furo[3,4-d]pyrrolo[3,2-b]pyridine-2-carboxamide] | 34 | 2490 |  | 
14 | CC[C@@H](C)N(Cc1ccc(C2CCC2)cn1)C(=O)c1cc2nc(N)c3c(c2[nH]1)COC3 [Example 107, (R)-5-amino-N-(sec-butyl)-N-((5-cyclobutylpyridin-2-yl)methyl)-6,8-dihydro-1H-furo[3,4-d]pyrrolo[3,2-b]pyridine-2-carboxamide] | 20 | 1090 |  | 
15 | Nc1nc2cc(C(=O)N(Cc3ccc(-c4c(F)cccc4F)cn3)[C@@H]3CCCc4cccnc43)[nH]c2c2c1COC2 [Example 2, (R)-5-amino-N-((5-(2,6-difluorophenyl)pyridin-2-yl)methyl)-N-(5,6,7,8-tetrahydroquinolin-8-yl)-6,8-dihydro-1H-furo[3,4-d]pyrrolo[3,2-b]pyridine-2-carboxamide] | 3.3 | 23 |  | 
16 | N#Cc1cc(F)c(CN(Cc2c(F)cccc2F)C(=O)c2cc3nc(N)c4c(c3[nH]2)COC4)c(F)c1 [Example 22, 5-amino-N-(4-cyano-2,6-difluorobenzyl)-N-(2,6-difluorobenzyl)-6,8-dihydro-1H-furo[3,4-d]pyrrolo[3,2-b]pyridine-2-carboxamide] | < 1.5 | 11 |  | 
17 | C[C@H]1OCc2c1c(N)nc1cc(C(=O)N(C)[C@@H]3COC4(CC4)c4cc(C(F)(F)F)cc(F)c43)[nH]c21 [Example 170, (R)-5-amino-N—((S)-5′-fluoro-7-(trifluoromethyl)spiro[cyclopropane-1,1′-isochroman]-4′-yl)-N,6-dimethyl-6,8-dihydro-1H-furo[3,4-d]pyrrolo[3,2-b]pyridine-2-carboxamide] |  |  | 4.4 | 1010
18 | N#Cc1ccc(CN(Cc2c(F)cccc2F)C(=O)c2cc3nc(N)c4c(c3[nH]2)COC4)nc1 [Example 32, 5-amino-N-((5-cyanopyridin-2-yl)methyl)-N-(2,6-difluorobenzyl)-6,8-dihydro-1H-furo[3,4-d]pyrrolo[3,2-b]pyridine-2-carboxamide] | 3.9 | 451 |  | 
19 | CCN(C(=O)c1cc2nc(N)c3c(c2[nH]1)COC3)[C@H](C)c1ccc(Br)cc1F [Example 133, (R)-5-amino-N-(1-(4-bromo-2-fluorophenyl)ethyl)-N-ethyl-6,8-dihydro-1H-furo[3,4-d]pyrrolo[3,2-b]pyridine-2-carboxamide] | 13 | 1340 |  | 
20 | Nc1nc2cc(C(=O)N(Cc3ccc(-c4c(F)cccc4F)cn3)[C@@H]3CCOc4ccccc43)[nH]c2c2c1COC2 [Example 12, 5-amino-N-(chroman-4-yl)-N-((5-(2,6-difluorophenyl)pyridin-2-yl)methyl)-6,8-dihydro-1H-furo[3,4-d]pyrrolo[3,2-b]pyridine-2-carboxamide] | 29 | 1910 |  | 
21 | CN(C(=O)c1cc2nc(N)c3c(c2[nH]1)COC3)[C@@H]1COCc2cc(C(F)(F)F)cc(F)c21 [Example 82, (S)-5-amino-N-(5-fluoro-7-(trifluoromethyl)isochroman-4-yl)-N-methyl-6,8-dihydro-1H-furo[3,4-d]pyrrolo[3,2-b]pyridine-2-carboxamide] | 13 | 1840 |  | 
22 | CN(C(=O)c1cc2nc(N)c3c(c2[nH]1)COC3)[C@@H]1COCc2cc(C(F)(F)F)ccc21 [Example 40, (S)-5-amino-N-methyl-N-(7-(trifluoromethyl)isochroman-4-yl)-6,8-dihydro-1H-furo[3,4-d]pyrrolo[3,2-b]pyridine-2-carboxamide] | 13 | 2490 |  | 
23 | COC[C@@H](C)N(Cc1c(F)cc(C#N)cc1F)C(=O)c1cc2nc(N)c3c(c2[nH]1)COC3 [Example 46, (R)-5-amino-N-(4-cyano-2,6-difluorobenzyl)-N-(1-methoxypropan-2-yl)-6,8-dihydro-1H-furo[3,4-d]pyrrolo[3,2-b]pyridine-2-carboxamide] | 9 | 854 |  | 
24 | N#Cc1cnccc1-c1ccc(CN(C(=O)c2cc3nc(N)c4c(c3[nH]2)COC4)[C@@H]2CCCc3cccnc32)nc1 [Example 11, (R)-5-amino-N-((3′-cyano-[3,4′-bipyridin]-6-yl)methyl)-N-(5,6,7,8-tetrahydroquinolin-8-yl)-6,8-dihydro-1H-furo[3,4-d]pyrrolo[3,2-b]pyridine-2-carboxamide] | 3.8 | 69 |  | 
25 | C[C@H]1OC[C@@H](N(C)C(=O)c2cc3nc(N)c4c(c3[nH]2)COC4)c2ccc(C(F)(F)F)cc21 [Example 60, 5-amino-N-methyl-N-((1R,4S)-1-methyl-7-(trifluoromethyl)isochroman-4-yl)-6,8-dihydro-1H-furo[3,4-d]pyrrolo[3,2-b]pyridine-2-carboxamide] | 7.3 | 857 |  | 
26 | CN(C(=O)c1cc2nc(N)c3c(c2[nH]1)COC3)[C@@H]1COCc2nc(C3CC3)ccc21 [Example 87, (S)-5-amino-N-(2-cyclopropyl-5,8-dihydro-6H-pyrano[3,4-b]pyridin-5-yl)-N-methyl-6,8-dihydro-1H-furo[3,4-d]pyrrolo[3,2-b]pyridine-2-carboxamide] | 67 | > 10000 |  | 
27 | CCN(C(=O)c1cc2nc(N)c3c(c2[nH]1)CO[C@@H]3C)[C@@H](C)c1ccc(Br)cc1F [Example 125] |  |  | 365 | 7460

From US20240368177A1, “5-AMINO-6,8-DIHYDRO-1H-FURO[3,4-d]PYRROLO[3,2-b]PYRIDINE-2-CARBOXAMIDE DERIVATIVES AS MTA-COOPERATIVE INHIBITORS OF PRMT5” (BeiGene Switzerland GmbH, priority 2023, published 2024)
